# Data taken from ChEMBL document CHEMBL1201862, “PubChem BioAssay data set” (2004).
# Active and inactive are the calls of the source. Rule as the data show it, for most assays here: actives have a measured EC50 and inactives only a lower limit.
# What was measured:
# H9c2 = experiment: cells; format: functional, cell-based; settings: Rattus norvegicus, H9c2, Myocardium;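 also: confirmatory concentration-response retest of ultra-high-throughput screening hits for modulation of myocardial damage; cell death induced by hydrogen peroxide oxidative stress; compound pretreatment for 60 min then peroxide exposure for 2 h; potency is for protecting the cells against peroxide damage rather than for killing them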
# [1] = molecular target: T1, Corticotropin-releasing factor receptor 2/Corticotropin-releasing factor-binding protein (Homo sapiens, UniProt P24387+Q13324); experiment: Dose Response confirmation of uHTS hits for small molecule antagonists of the CRF-binding protein and CRF-R2 receptor complex.; format: functional; settings: read-out: IC50_Mean
# T1 sequence (Q13324 whole entry): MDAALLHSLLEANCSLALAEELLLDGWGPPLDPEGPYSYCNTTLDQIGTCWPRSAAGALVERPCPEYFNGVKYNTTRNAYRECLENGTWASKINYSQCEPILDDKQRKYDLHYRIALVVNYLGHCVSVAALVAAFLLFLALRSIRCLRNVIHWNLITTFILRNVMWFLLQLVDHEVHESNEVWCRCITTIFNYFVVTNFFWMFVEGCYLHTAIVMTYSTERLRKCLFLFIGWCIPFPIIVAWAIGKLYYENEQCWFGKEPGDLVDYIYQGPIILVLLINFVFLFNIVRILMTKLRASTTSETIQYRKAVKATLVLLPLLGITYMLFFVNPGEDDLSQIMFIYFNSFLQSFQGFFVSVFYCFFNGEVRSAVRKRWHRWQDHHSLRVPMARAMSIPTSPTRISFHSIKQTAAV
# T1 sequence (P24387 whole entry): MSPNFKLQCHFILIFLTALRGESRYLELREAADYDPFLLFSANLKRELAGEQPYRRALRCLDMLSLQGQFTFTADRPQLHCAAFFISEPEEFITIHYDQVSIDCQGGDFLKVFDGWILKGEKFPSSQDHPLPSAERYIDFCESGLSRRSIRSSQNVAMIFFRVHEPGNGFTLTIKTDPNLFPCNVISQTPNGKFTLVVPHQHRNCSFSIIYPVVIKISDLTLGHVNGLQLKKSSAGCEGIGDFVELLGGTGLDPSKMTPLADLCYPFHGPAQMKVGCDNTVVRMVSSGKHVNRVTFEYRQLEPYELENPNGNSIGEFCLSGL
# [2] = molecular target: T1, Corticotropin-releasing factor receptor 2/Corticotropin-releasing factor-binding protein; experiment: activators of CRF receptor 2 with binding protein – uHTS hits, confirmation (AID 602473); format: functional; settings: read-out: EC50_Mean
# [3] = molecular target: T2, RNA-binding protein pos-1 (Caenorhabditis elegans, UniProt G5EF15); experiment: disruptors of C. elegans POS-1 RNA interaction – biochemical, fluorescence polarization, dose response (AID 1964);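 also: purified POS-1 fused to maltose binding protein made in E. coli; potency of compounds blocking POS-1 binding to fluorescent RNA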
# T2 sequence (G5EF15 whole entry): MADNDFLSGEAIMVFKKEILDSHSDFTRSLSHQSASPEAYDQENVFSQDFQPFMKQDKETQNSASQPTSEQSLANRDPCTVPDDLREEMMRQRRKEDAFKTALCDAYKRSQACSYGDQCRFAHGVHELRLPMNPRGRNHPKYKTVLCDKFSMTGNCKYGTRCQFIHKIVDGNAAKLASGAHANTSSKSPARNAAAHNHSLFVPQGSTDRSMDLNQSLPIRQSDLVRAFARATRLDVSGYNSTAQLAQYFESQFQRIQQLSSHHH
# [4] = molecular target: T3, Zinc finger protein mex-5 (Caenorhabditis elegans, UniProt Q9XUB2); experiment: potency of MEX-5 RNA-binding blockers – biochemical, C. elegans, fluorescence polarization, dose response (AID 1960)
# T3 sequence (Q9XUB2 whole entry): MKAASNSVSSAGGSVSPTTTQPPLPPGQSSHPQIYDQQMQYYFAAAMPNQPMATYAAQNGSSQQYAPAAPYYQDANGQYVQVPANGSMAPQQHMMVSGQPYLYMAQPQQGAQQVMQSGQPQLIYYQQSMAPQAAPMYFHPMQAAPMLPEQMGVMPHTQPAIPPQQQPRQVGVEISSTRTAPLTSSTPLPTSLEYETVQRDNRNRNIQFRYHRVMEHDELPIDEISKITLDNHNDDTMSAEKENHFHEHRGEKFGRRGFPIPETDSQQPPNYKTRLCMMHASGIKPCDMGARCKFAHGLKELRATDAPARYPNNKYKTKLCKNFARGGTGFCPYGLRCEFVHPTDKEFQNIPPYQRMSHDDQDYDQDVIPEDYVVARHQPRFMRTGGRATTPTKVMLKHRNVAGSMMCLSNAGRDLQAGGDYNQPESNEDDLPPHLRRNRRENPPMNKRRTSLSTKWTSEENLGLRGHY
# [5] = test system: Streptococcus sp. 'group A'; experiment: Streptococcus pyogenes SK(-)GAS viability under kanamycin – luminescence, BacTiterGlo, confirmation, counter-screen for streptokinase expression inhibitor project, dose response (AID 1900); format: functional, organism-based
# Streptokinase A = molecular target: T4, Streptokinase A (Streptococcus pyogenes serotype M1, UniProt P10520); experiment: viability-normalized secreted streptokinase activity reduction – plasminogen activation absorbance, OD405, dose response (AID 1914); format: functional, Streptococcus pyogenes M1 GAS;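 also: secreted streptokinase activity via plasminogen activation per viability signal from cell pellet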
# T4 sequence (P10520 whole entry): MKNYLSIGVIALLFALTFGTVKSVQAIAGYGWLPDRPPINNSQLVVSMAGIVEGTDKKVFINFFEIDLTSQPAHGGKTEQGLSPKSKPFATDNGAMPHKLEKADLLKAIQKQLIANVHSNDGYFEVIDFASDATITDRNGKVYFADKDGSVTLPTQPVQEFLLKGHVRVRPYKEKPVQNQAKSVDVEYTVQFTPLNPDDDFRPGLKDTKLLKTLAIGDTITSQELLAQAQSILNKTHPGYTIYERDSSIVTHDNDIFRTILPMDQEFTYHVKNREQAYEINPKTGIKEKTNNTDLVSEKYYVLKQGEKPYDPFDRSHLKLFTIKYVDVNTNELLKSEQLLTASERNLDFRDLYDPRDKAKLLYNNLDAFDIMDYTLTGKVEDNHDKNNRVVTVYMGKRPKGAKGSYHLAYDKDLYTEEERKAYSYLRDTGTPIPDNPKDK
# Streptococcus = experiment: GAS UMAA2166 growth inhibition – luminescence, BacTiterGlo, counter-screen for streptokinase expression inhibitor project, dose response (AID 1915); format: functional, organism-based;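 also: potency for reduction of bacterial viability or growth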
# [6] = NIH-3T3 fibroblast cytotoxicity, dose response, cytotoxicity control, cell-based, fluorescence, Alamar Blue, secondary assay (AID 2327); format: functional;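 also: NIH-3T3 mouse fibroblasts cultured with fluconazole at 8 µg/mL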
# [7] = fluconazole-exposed Candida albicans growth modulators – fluorescence, retest, confirmation (AID 2467); format: functional, cell-based
# [8] = Trypanosoma cruzi growth suppression in host cells – NIH3T3 host cells, beta-gal luminescence, confirmation (AID 2044); format: functional, cell-based;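 also: intracellular parasites grown in NIH/3T3 mouse fibroblasts as host cells; luminescent beta-galactosidase reporter signal from transgenic T. cruzi replicating inside host cells; inhibitors lower the luminescence signal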
# [9] = NIH3T3 cell viability loss – ATP luminescence, mouse fibroblasts, counter-screen, dose response (AID 2010); format: functional, cell-based;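 also: cells exposed to compound for about 90 hours before reading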
smiles,measurement,setting,value
N#Cc1cnn2cc(-c3ncc(C(F)(F)F)cc3Cl)cnc12,IC50,H9c2,> 79 µM (inactive)
Cc1cc2ccccc2c(O)n1,IC50,H9c2,23.5 µM (active)
O=C(Nc1ccc(N2CCCCCC2)cc1)c1ccccc1Cl,IC50,[1],> 47.1 µM (inactive)
same,EC50,[2],> 53 µM (inactive)
N#CCC(N)=C(C#N)C#N,EC50,[3],54.9 µM (active)
same,EC50,[4],169 µM (active)
CCOc1ccc2c(c1)=C(NN1C(=O)c3ccccc3C1=O)C(=O)N=2,IC50,[1],> 47.1 µM (inactive)
same,EC50,[2],> 53 µM (inactive)
Cc1nc(SCC(=O)NCc2ccc(F)cc2)c2c(=O)n(C)c(=O)n(C)c2n1,IC50,H9c2,> 79 µM (inactive)
COc1ccc(-c2cc3ccc(OCC(N)=O)cc3oc2=O)cc1OC,EC50,[3],> 300 µM (not active)
same,EC50,[4],> 300 µM (not active)
CCn1c(=O)cc(OCC(=O)Nc2ccccc2C#N)c2ccccc21,IC50,H9c2,18.1 µM (active)
Cn1c(N)c(C(=O)COC(=O)/C=C/c2ccc(OC(F)F)cc2)c(=O)n(C)c1=O,EC50,[5],3.34 µM (active)
same,EC50,Streptokinase A,> 150 µM (not active)
same,EC50,Streptococcus,13.4 µM (active)
O=C(O)c1nn(CCOc2ccc(Br)cc2)c(=O)c2ccccc12,IC50,H9c2,> 79 µM (inactive)
O=S(=O)(c1cccc(-c2csc(-c3cccnc3)n2)c1)N1CCOCC1,EC50,[3],> 300 µM (not active)
same,EC50,[4],> 300 µM (not active)
CCOC(=O)c1cc(C(=O)OCC)cc(-n2c(C)cc(C(=O)CN3CCOCC3)c2C)c1,EC50,[3],> 300 µM (not active)
same,EC50,[4],> 300 µM (not active)
CN1/C(=C/C=C(C#N)C#N)C(C)(C)c2ccccc21,EC50,[3],248 µM (active)
same,EC50,[4],> 300 µM (inconclusive)
CC(C(=O)c1ccccc1)[n+]1cccc(Br)c1 (centres undefined),EC50,[6],> 150 µM (inactive)
same,EC50,[7],> 38 µM (not active)
N#Cc1ccccc1S(=O)(=O)N1CCN(c2nc(-c3cccnc3)nc3ccccc23)CC1,IC50,H9c2,27.7 µM (active)
COc1ccc(N2C(=O)CC(c3ccc([N+](=O)[O-])cc3)C2=O)cc1 (centres undefined),IC50,[1],> 47.1 µM (inactive)
same,EC50,[2],> 53 µM (inactive)
Cc1cc(N)n(-c2nc(-c3cccnc3)nc3ccccc23)n1,IC50,H9c2,11.6 µM (active)
COc1cc(C(=O)NNC(=S)NC(=O)c2ccc(F)cc2)cc(OC)c1OC,EC50,[5],3.25 µM (active)
same,EC50,Streptokinase A,> 150 µM (not active)
same,EC50,[8],0.791 µM (active)
same,EC50,[9],14.9 µM (active)
same,EC50,Streptococcus,15.5 µM (active)
O=C(CSc1ccccc1)N(c1ccc(Br)cc1)c1nccs1,IC50,[1],> 47.1 µM (inactive)
same,EC50,[2],> 53 µM (inactive)
CNC(=O)c1c(NC(=O)c2ccc(S(=O)(=O)N3CCCCC3C)cc2)sc2c1CCN(C)C2 (centres undefined),EC50,[3],> 300 µM (not active)
same,EC50,[4],> 300 µM (not active)
Cc1ccc(N2C(=O)C3CC(c4ccccc4)=C4C5C=CC(C6C(=O)N(c7ccc(C)cc7)C(=O)C56)C4C3C2=O)cc1 (centres undefined),EC50,[5],1.41 µM (active)
same,EC50,Streptokinase A,> 150 µM (not active)
same,EC50,Streptococcus,30.9 µM (active)
COc1cc(NC(=O)CSc2nc3ncnc(N)c3[nH]2)c(C(=O)O)cc1OC,EC50,[3],29.2 µM (active)
same,EC50,[4],30.3 µM (active)
CC1C2=C(O)CC(C)(C)CC2=NC2=C1C(=O)CC(C)(C)C2 (centres undefined),EC50,[2],> 53 µM (inactive)
N#CC1=C(N)OC2=C(C(=O)CCC2)C1c1ccccc1 (centres undefined),EC50,[3],> 300 µM (not active)
same,EC50,[4],> 300 µM (not active)
O=c1c2ccccc2c(-c2ccccc2)nn1Cc1c(Cl)cccc1Cl,EC50,[5],7.76 µM (active)
same,EC50,Streptokinase A,17 µM (active)
same,EC50,Streptococcus,> 150 µM (not active)
O=C(NCC1CCCO1)C(c1ccc(F)cc1)N(Cc1ccc(F)cc1)C(=O)Cn1nnc(-c2cccs2)n1 (centres undefined),EC50,[6],> 160 µM (inactive)
same,EC50,[7],> 38 µM (not active)
COC(=O)c1cc(C)sc1NC(=O)c1cccnc1,EC50,[6],62.4 µM (active)
same,EC50,[7],> 38 µM (not active)
CC1CCCC(C)N1C(=O)CSc1nc(O)c2ccccc2n1 (centres undefined),IC50,H9c2,> 79 µM (inactive)
COC(=O)c1ccc(N2CCN(C)CC2)c(NC(=O)COc2ccc(C)cc2)c1,EC50,[5],> 150 µM (not active)
same,EC50,Streptokinase A,> 150 µM (not active)
same,EC50,Streptococcus,> 150 µM (not active)
CC(C)COc1nc2ccccc2c(=O)n1OCC(=O)O,IC50,H9c2,> 79 µM (inactive)
COc1ccc(OC)c(N(CC(=O)Nc2cccnc2)S(=O)(=O)c2ccc(OC)c(OC)c2)c1,IC50,H9c2,12 µM (active)
Oc1nc(Nc2ccc(F)cc2)sc1/C=C1\C=Nc2ccccc21,EC50,[5],7.02 µM (active)
same,EC50,Streptokinase A,> 150 µM (not active)
same,EC50,Streptococcus,18.4 µM (active)
CCn1c(=O)n(CC(=O)N2CCN(c3ccccc3F)CC2)c(=O)c2ccccc21,EC50,[6],> 160 µM (inactive)
same,EC50,[7],> 38 µM (not active)
CCSc1nc2ccccc2n1CC(=O)N1CCCCC1,IC50,[1],> 47.1 µM (inactive)
same,EC50,[2],> 53 µM (inactive)
COc1ccc(C(=O)NNC(=O)CCc2nc(O)c3ccccc3n2)cc1,IC50,H9c2,26 µM (active)
COc1ccccc1N1CCN(Cc2c(F)cccc2Cl)CC1,IC50,[1],> 47.1 µM (inactive)
same,EC50,[2],> 53 µM (inactive)
N#CCCN(C(=O)COC(=O)CCc1nc(O)c2ccccc2n1)c1ccccc1F,IC50,H9c2,13 µM (active)
CCOc1ccc(/C=C(\C#N)C(=O)NC2CC2)c(OCC)c1,IC50,[1],> 47.1 µM (inactive)
same,EC50,[2],> 53 µM (inactive)
COc1cc(OC)cc(C(=O)Nc2ccc(S(=O)(=O)Nc3cnc4ccccc4n3)cc2)c1,IC50,[1],> 47.1 µM (inactive)
same,EC50,[2],> 53 µM (inactive)
O=[N+]([O-])c1cccc(/C=N/NC2=NCCCCC2)c1,IC50,[1],> 47.1 µM (inactive)
same,EC50,[2],> 53 µM (inactive)
COc1cc(/C=N/NC(=O)c2ccccc2)ccc1OS(=O)(=O)c1ccccc1,IC50,H9c2,> 79 µM (inactive)
O=S(=O)(/N=C(\c1ccc(F)cc1)N1CCOCC1)c1ccccc1,EC50,[2],> 53 µM (inactive)
CCOC(=O)C1=c2/c(=C/c3ccncc3)c(N)c(C(=O)OC)n2C(=O)C(c2ccncc2)S1 (centres undefined),IC50,H9c2,> 79 µM (inactive)
CCc1ccc(/C=N/n2c(S)nnc2C2CCCCC2)cc1,EC50,[5],11.1 µM (active)
same,EC50,Streptokinase A,> 150 µM (not active)
same,EC50,Streptococcus,15.1 µM (active)
C/C(=N/Nc1nc(-c2ccccc2F)nc2ccccc12)c1ccccc1O,EC50,[5],10.2 µM (active)
same,EC50,Streptokinase A,> 150 µM (not active)
same,EC50,Streptococcus,> 150 µM (not active)
